Values joined by “and” are separate entries in the source; they are usually repeats but may differ in a detail not shown here. Identical values can stand only once. Like-named read-outs stand apart in the source and are kept apart here. Marks after values point to notes of the source that are not given here.
How the values were obtained:
[1] = tested on: wild-type (WT) Mtb; type: cell-based, Mycobacterium tuberculosis
[2] = CC50 cytotoxicity, Promega CellTiter-Glo Luminescent Cell Viability Assay; type: cell-based, African green monkey; conditions: African green monkey, Vero cells; 72-hour incubation, CellTiter-Glo, n = 3
Protocol: (§1) Cytotoxicity assays were conducted to measure toxicity of compounds at single concentration in Vero TMPRSS2 cells by using quantitation of ATP to indicate metabolically active cells. Vero cells (derived from African Green Monkey kidney epithelial tissue) were grown in Dulbecco's Modified Eagle Medium (DMEM) supplemented with 10% fetal bovine serum (FBS), 10 mM HEPES buffered saline, and 2 mM L-glutamine. 5,000 cells per well were seeded into a 96-well plate containing two-fold titrations of compounds. The concentration of DMSO was maintained at 0.5% for all wells to avoid toxicity. The plates were incubated for 72 hours, at which point they were acclimatized to room temperature for 30 minutes. 25 μL of the substrate/buffer solution from the Promega CellTiter-Glo Luminescent Cell Viability Assay kit was added to each well. The plates were shaken at a low orbital speed for 3 minutes and let rest at room temperature for 10 minutes, after which luminescence was measured using a BioTek Synergy H1 Microplate Reader H1M. The positive control was defined as wells containing cells without compounds.
(§2) Percent viability was input into PRISM GraphPad to calculate CC50 values by plotting as a non-linear regression curve.
(§3) Given the toxicity of an initial hit compound in mammalian cells and the potential concern for toxicity more generally with nitro-containing drugs, the selected compounds were also examined for toxicity in a mammalian cell line using Promega's Cell Titer-Glo assay to assess cellular ATP levels as a read-out of viability. […] A selectivity index (SI) was then calculated for each compound by determining the ratio of the CC50 in Vero cells to the MABA IC50 in Mtb, where the larger the SI, the safer the compound is in eukaryotic cells relative to its effective dose. […] Therefore, not only were the SAR efforts successful in identifying compounds with increased potency against Mtb, but also, the toxicity concerns of the original hit compound were overcome.

[3] = tested on: Vero cells; assay: as above; type: cell-based, African green monkey; conditions: for selectivity index (SI): ratio of CC50 in Vero cells to MABA IC50 in Mtb; for CC50: 72-hour incubation, CellTiter-Glo, n = 3
Protocol: as §1, §2, §3

[4] = tested on: wild-type (WT) Mtb Erdman strain; assay: MABA, Mtb Erdman strain; type: cell-based; conditions: Mycobacterium tuberculosis
[5] = Liver microsomal stability, mouse; conditions: mouse liver microsomes, n = 1
[6] = PBS solubility; conditions: highest concentration with no detectable precipitate; phosphate-buffered saline
[7] = Plasma stability, mouse; conditions: n = 1
[8] = Liver microsomal stability, human; conditions: human liver microsomes, n = 1
[9] = Plasma stability, human; conditions: n = 1
[10] = tested on: wild-type (WT) Mtb HN878 strain; assay: MABA, Mtb HN878 strain; type: cell-based; conditions: Mycobacterium tuberculosis; read-out: IC50 ± S.D. (μM) HN878
[11] = tested on: Vero TMPRSS2 cells; assay: Cytotoxicity at single concentration, CellTiter-Glo ATP quantitation; type: cell-based, African Green Monkey; conditions: 50 uM, 72 hours
Protocol: as §1
Percent viability was calculated as follows: […]

[12] = read-out: IC50 S.D. (μM) Mtb Erdman strain
[13] = read-out: IC50 ± S.D. (μM) Erdman

Compound: CCCCCCC#Cc1cncc(-c2nnc(SC)n2C)c1
- IC50 [1]: 48 µM

Compound: CCCCCCC#Cc1cncc(-c2nnc(SCc3cc(C(F)(F)F)cc(C(F)(F)F)c3)n2C)c1
- IC50 [1]: > 200 µM

Compound: CCCCCCC#Cc1cncc(-c2nnc(SCc3ncc([N+](=O)[O-])n3C)n2C)c1
- IC50 [1]: 94 µM

Compound: CCCCCCC#Cc1cncc(-c2nnc(SCCc3ccc(Cl)cc3)n2C)c1
- IC50 [1]: 8.2 µM

Compound: CCCCCCC#Cc1cncc(-c2nnc(Sc3ccc(Cl)cc3)n2C)c1
- IC50 [1]: 13 µM

Compound: CCCCCCC#Cc1cncc(-c2nnc(SCc3ccc(F)c([N+](=O)[O-])c3)n2C)c1
- IC50 [1]: 44 µM

Compound: CCCCCCC#Cc1cncc(-c2nnc(SCc3ccc(Cl)cc3[N+](=O)[O-])n2C)c1
- IC50 [1]: > 200 µM

Compound: CCCCCCC#Cc1cncc(-c2nnc(SCc3cc([N+](=O)[O-])cc(C(F)(F)F)c3)n2C)c1
- IC50 [1]: > 200 µM

Compound: CCCCCCC#Cc1cncc(-c2nnc(Sc3ccc([N+](=O)[O-])c4nonc34)n2C)c1
- IC50 [1]: 27 µM

Compound: CCCCCCC#Cc1cncc(-c2nnc(SCc3ccc4nonc4c3)n2C)c1
- IC50 [1]: > 200 µM

Compound: CCCCCCC#Cc1cncc(-c2nnc(SCc3ccc(Cl)cc3)n2CC)c1
- IC50 [1]: 4.7 µM

Compound: CCCCCCC#Cc1cncc(-c2nnc(SCc3ccc(Cl)cc3)n2CCCC)c1
- IC50 [1]: > 200 µM

Compound: CCCCCCC#Cc1cncc(-c2nnc(SCc3ccc(Cl)cc3)n2-c2ccccc2)c1
- IC50 [1]: > 200 µM

Compound: CCCCCCC#Cc1cncc(-c2nnc(SCc3ccc(Cl)cc3)n2Cc2ccccc2)c1
- IC50 [1]: > 200 µM

Compound: Cn1c(SCc2ccc(Cl)cc2)nnc1-c1cccnc1
- IC50 [1]: > 200 µM

Compound: Cn1c(SCc2ccc(Cl)cc2)nnc1-c1cncc(Br)c1
- IC50 [1]: > 200 µM

Compound: CCCC#Cc1cncc(-c2nnc(SCc3ccc(Cl)cc3)n2C)c1
- IC50 [1]: 15 µM

Compound: CCCCCCC#Cc1ccc(-c2nnc(SCc3ccc(Cl)cc3)n2C)cn1
- IC50 [1]: > 200 µM

Compound: CCCCCCC#Cc1cncc(-c2nnc(SCc3ccc(Cl)c(F)c3)[nH]2)c1
- CC50 at 72 hour [2]: > 125 µM
- selectivity index (SI) [3]: >23
- IC50 [4, 12]: 5.4 ± 0.03 µM

Compound: CCCCCCC#Cc1cncc(-c2nnc(SCc3ccc([N+](=O)[O-])cc3[N+](=O)[O-])n2C)c1
- CC50 at 72 hour [2]: 28 ± 1 µM
- selectivity index (SI) [3]: 27
- IC50 [4, 12]: 1.1 ± 0.1 µM

Compound: CCCCCCC#Cc1cncc(-c2nnc(SCc3cc([N+](=O)[O-])cc([N+](=O)[O-])c3)n2C2CC2)c1.Cl
- liver microsomal stability t1/2 (min), mouse [5]: 5.9 min
- PBS solubility [6]: 3.1 µM
- plasma stability t1/2 (min), mouse [7]: >480; >480 min
- liver microsomal stability t1/2 (min), human [8]: 3.0 min
- plasma stability t1/2 (min), human [9]: >480; >480 min

Compound: CCCCCCC#Cc1cncc(-c2nnc(SCc3cc([N+](=O)[O-])cc([N+](=O)[O-])c3)n2C)c1 [3,5-dinitrobenzyl analog]
- antimycobacterial activity ([1]; text b333, MABA): 0.5 µM

Compound: NNC(=O)c1ccncc1 [INH, isoniazid, reference compound]
- IC50 [10]: 0.12 ± 0.00051 µM
- IC50 [4, 13]: 0.18 ± 0.014 µM

Compound: CCCCCCC#Cc1cncc(-c2nnc(SCc3ccc(Cl)cc3)n2C)c1 [drawing 51]
- IC50 [1]: 5.3 µM

Compound: CCCCCCC#Cc1cncc(-c2nnc(SCc3ccc(Cl)c(F)c3)n2C)c1 [drawing 52]
- IC50 [1]: 4.1 µM

Compound: CCCCCCC#Cc1cncc(-c2nnc(SCc3ccc(Br)cc3)n2C)c1 [drawing 55 R = Br]
- IC50 [1]: 4.6 µM

Compound: CCCCCCC#Cc1cncc(-c2nnc(SCc3ccc(C(F)(F)F)cc3)n2C)c1 [drawing 55 R = CF3]
- IC50 [1]: 44 µM

Compound: CCCCCCC#Cc1cncc(-c2nnc(SCc3ccc(C#N)cc3)n2C)c1 [drawing 55 R = CN]
- IC50 [1]: 8.9 µM

Compound: CCCCCCC#Cc1cncc(-c2nnc(SCc3ccc(F)cc3)n2C)c1 [drawing 55 R = F]
- IC50 [1]: 6.9 µM

Compound: CCCCCCC#Cc1cncc(-c2nnc(SCc3ccc(OC)cc3)n2C)c1 [drawing 55 R = MeO]
- IC50 [1]: 8.7 µM

Compound: CCCCCCC#Cc1cncc(-c2nnc(SCc3ccc(C)cc3)n2C)c1 [drawing 55 R = Me]
- IC50 [1]: 6.1 µM

Compound: CCCCCCC#Cc1cncc(-c2nnc(SCc3ccc([N+](=O)[O-])cc3)n2C)c1 [drawing 55 R = NO2]
- IC50 [1]: 5.9 µM

Compound: CCCCCCC#Cc1cncc(-c2nnc(SCc3ccc(-c4ccccc4)cc3)n2C)c1 [drawing 55 R = Ph]
- IC50 [1]: 197 µM

Compound: CCCCCCC#Cc1cncc(-c2nnc(SCCn3c([N+](=O)[O-])cnc3C)n2C)c1 [drawing 58]
- IC50 [1]: 22 µM

Compound: CCCCCCC#Cc1cncc(-c2nnc(SCc3ccc([N+](=O)[O-])o3)n2C)c1 [drawing 61]
- IC50 [1]: 0.55 µM

Compound: CCCCCCC#Cc1cncc(-c2nnc(SCc3cccc(Cl)c3)n2C)c1 [drawing 64 R = Cl]
- IC50 [1]: 15 µM

Compound: CCCCCCC#Cc1cncc(-c2nnc(SCc3ccc(Cl)c(Cl)c3)n2C)c1 [drawing 67]
- IC50 [1]: 6.8 µM

Compound: CCCCCCC#Cc1cncc(-c2nnc(SCc3cc(F)cc(F)c3)n2C)c1 [drawing 69]
- IC50 [1]: 8 µM

Compound: CCCCCCC#Cc1cncc(-c2nnc(SCc3ccc(Cl)cc3)n2C2CC2)c1 [drawing 77]
- IC50 [1]: 3.3 µM

Compound: CCCCCCC#Cc1cncc(-c2nnc(SCc3ccc([N+](=O)[O-])o3)n2C2CC2)c1 [drawing 80]
- IC50 [1]: < 0.78 µM

Compound: CCCCCCC#Cc1cccc(-c2nnc(SCc3ccc(Cl)cc3)n2C)c1 [drawing 84]
- IC50 [1]: 8.5 µM

Compound: C#Cc1cncc(-c2nnc(SCc3ccc(Cl)cc3)n2C)c1 [drawing 87]
- IC50 [1]: 86 µM

Compound: Cn1c(SCc2ccc(Cl)cc2)nnc1-c1cncc(C#Cc2ccccc2)c1 [drawing 88]
- IC50 [1]: 4 µM

Compound: CCCCCCC#Cc1cncc(-c2nnc(SCc3ccc(Cl)cc3)n2C)c1 [drawing 92]
- IC50 [10]: 0.85 ± 0.043 µM
- IC50 [4, 13]: 1.5 ± 0.19 µM

Compound: CCCCCCC#Cc1cncc(-c2nnc(SCc3ccc(C#N)cc3)n2C)c1 [drawing 93]
- IC50 [10]: 2.3 ± 0.2 µM
- IC50 [4, 13]: 5.3 ± 1.17 µM

Compound: CCCCCCC#Cc1cncc(-c2nnc(SCc3ccc([N+](=O)[O-])cc3)n2C)c1 [drawing 94]
- IC50 [10]: 1.3 ± 0.15 µM
- IC50 [4, 13]: 2.9 ± 0.45 µM

Compound: CCCCCCC#Cc1cncc(-c2nnc(SCc3cc([N+](=O)[O-])cc([N+](=O)[O-])c3)n2C)c1 [drawing 95]
- IC50 [10]: 0.061 ± 0.012 µM
- IC50 [4, 13]: 0.17 ± 0.016 µM

Compound: CCCCCCC#Cc1cncc(-c2nnc(SCc3ccc(Cl)cc3)n2C)c1 [drawing 129]
- CC50 at 72 hour [2]: 50 ± 5.5 µM
- selectivity index (SI) [3]: 9.3
- IC50 [4, 12]: 5.4 ± 0.5 µM

Compound: CCCCCCC#Cc1cncc(-c2nnc(SCc3ccc(C#N)cc3)n2C)c1 [drawing 130]
- CC50 [3]: > 100 µM
- selectivity index (SI) [3]: >3.7
- IC50 [4, 12]: 27 ± 0.4 µM

Compound: CCCCCCC#Cc1cncc(-c2nnc(SCc3ccc([N+](=O)[O-])cc3)n2C)c1 [drawing 131]
- CC50 at 72 hour [2]: 27 ± 5.4 µM
- selectivity index (SI) [3]: 1.3
- IC50 [4, 12]: 22 ± 13 µM

Compound: CCCCCCC#Cc1cncc(-c2nnc(SCc3cc([N+](=O)[O-])cc([N+](=O)[O-])c3)n2C)c1 [drawing 133]
- CC50 [3]: > 100 µM
- selectivity index (SI) [3]: >294
- IC50 [4, 12]: 0.34 ± 0.01 µM

Compound: CCCCCCC#Cc1cncc(-c2nnc(SCc3ccc([N+](=O)[O-])o3)n2C)c1 [drawing 135]
- CC50 at 72 hour [2]: 33 ± 2.9 µM
- selectivity index (SI) [3]: 314
- IC50 [4, 12]: 0.1 ± 0.01 µM

Compound: CCCCCCC#Cc1cncc(-c2nnc(SCc3ccc(Cl)cc3)n2C2CC2)c1 [drawing 136]
- CC50 at 72 hour [2]: 25 ± 2.5 µM
- selectivity index (SI) [3]: 4.8
- IC50 [4, 12]: 5.1 ± 0.7 µM

Compound: CCCCCCC#Cc1cncc(-c2nnc(SCc3ccc([N+](=O)[O-])o3)n2C2CC2)c1 [drawing 137]
- CC50 at 72 hour [2]: 7.8 ± 0.48 µM
- selectivity index (SI) [3]: 165
- IC50 [4, 12]: 0.05 ± 0.003 µM

Compound: Cn1c(SCc2ccc(Cl)cc2)nnc1-c1cncc(C#Cc2ccccc2)c1 [drawing 138]
- CC50 [3]: > 100 µM
- selectivity index (SI) [3]: >46
- IC50 [4, 12]: 2.2 ± 0.4 µM

Compound: CCCCCCC#Cc1cncc(-c2nnc(SCc3ccc([N+](=O)[O-])o3)n2C)c1 [nitrofuran bearing analog]
- antimycobacterial activity (in words) ([1]; text b333-b334, MABA): most potent

Compound: COC(=O)[C@H]1[C@H]2C[C@@H]3c4[nH]c5cc(OC)ccc5c4CCN3C[C@H]2C[C@@H](OC(=O)c2cc(OC)c(OC)c(OC)c2)[C@@H]1OC [reserpine, reference compound]
- PBS solubility (μM) [6]: 7.8^[d] μM

Compound: Capuramycin B [reference compound]
- % Cell Viability Average [11]: 92.07% and 91.55% and 94.73%
- % Cell Viability Replicate 1 [11]: 90.49% and 90.38% and 96.50%
- % Cell Viability Replicate 2 [11]: 93.64% and 92.73% and 92.96%
